Experimental data: US12286443B2, “Bycyclic JAK inhibitors and uses thereof” (Insilico Medicine IP Limited, priority 2019, dated 2025)

Assays:
Format in all cases: biochemical
[1] = target: T1, JAK1 (Homo sapiens, UniProt P23458); assay: Inhibition of JAK1 kinase, LANCE Ultra TR-FRET assay; conditions: 2 nM JAK1, 2x ATP 76 μM, 15 min pre-incubation, 90 min reaction, 23° C.
T1 construct: purchased Invitrogen PV4775
Experimental: (§1) Exemplary compounds were assayed to determine potency in inhibiting activity of JAK1-3 and TYK2 kinases by determining IC50 values.
(§2) The sources of test materials and equipment are as follows: JAK1 (Invitrogen, Cat. No PV4775), JAK2 (Invitrogen, Cat. No PV4210), JAK3 (Invitrogen, Cat. No PV4080), TYK2 (Invitrogen, Cat. No PR8440C), ATP (Sigma, Cat. No. A7699-1G), DMSO (Sigma, Cat. No. D2650), DTT (Sigma, Cat. No. 43815), 384 wells_compound plate (Greiner, Cat. No. 781280), 384 wells_assay plate (Perkin Elmer, Cat. No. 6007299), LANCE Ultra ULight™-JAK-1 peptide (Perkin Elmer, Cat. No. TRF0121), LANCET™ Eu-W1024 Anti-phosphotyrosine (PT66) (Perkin Elmer, Cat. No. AD0069), LANCET™ Detection Buffer(Perkin Elmer, Cat. No. CR97-100).
(§3) The concentrations of test compounds varied from 100 μM to 1.7 nM with 3-fold dilution, 11 points, in duplicates while the concentrations of the reference compound, Tofacitinib, varied from 1 μM to 0.017 nM with 3-fold dilution, 11 points, in duplicates.
(§4) The assay buffer contained 50 mM HEPES (pH 7.5), 0.01% Brij-35, 10 mM MgCl2, 1 mM EDTA, 2 mM DTT. Incubations were carried out at 23° C.
(§5) Prior to the assay, enzyme, peptide substrate and serially diluted test compounds were pre-incubated together in assay buffer (5 μL) for 15 minutes (peptide substrate concentration: 50 nM; JAK enzyme concentrations: 2 nM JAK1; […]; […] and 4 nM TYK2). And the assay was initiated by the addition of 5 μL assay buffer containing 2× final ATP concentration (these are the 2×ATP concentrations: 76 μM JAK1; 24 μM JAK2; 8 μM JAK3 and 30 μM TYK2). Following the 90-minute incubation, antibody conjugated with Eu is dissolved in detection buffer to add into wells and then incubated for 60 minutes. The 10 μL detection buffer contains EDTA to stop the enzymatic reaction. The plate is analyzed by Perkin Elmer Envision on TR-FRET mode. The high ratio of 665/615 represents no inhibition of kinase reaction while the low ratio of 665/615 represents complete inhibition of kinase reaction.
(§6) Curves are fit by XLFIT5 as inhibition rate % vs. log [compound concentration] using 4 parameters logistic model 205.
(§7) In the table, “A” indicates an IC50 of less than 100 nM, “B” indicates an IC50 range from 100 nM to 500 nM; “C” indicates an IC50 range from 500 nM to 2 μM; and “D” indicates an IC50 greater than 2 μM. Also, “na” indicates data is not available.

[2] = target: T2, JAK2 (Homo sapiens, UniProt O60674); assay: Inhibition of JAK2 kinase, LANCE Ultra TR-FRET assay; conditions: 2x ATP 24 μM, 15 min pre-incubation, 90 min reaction, 23° C.
T2 construct: purchased Invitrogen PV4210
Experimental: as §1, §2, §3, §4, §5, §6, §7

[3] = target: T3, JAK3 (Homo sapiens, UniProt P52333); assay: Inhibition of JAK3 kinase, LANCE Ultra TR-FRET assay; conditions: 2x ATP 8 μM, 15 min pre-incubation, 90 min reaction, 23° C.
T3 construct: purchased Invitrogen PV4080
T3 sequence (P52333 1-1124): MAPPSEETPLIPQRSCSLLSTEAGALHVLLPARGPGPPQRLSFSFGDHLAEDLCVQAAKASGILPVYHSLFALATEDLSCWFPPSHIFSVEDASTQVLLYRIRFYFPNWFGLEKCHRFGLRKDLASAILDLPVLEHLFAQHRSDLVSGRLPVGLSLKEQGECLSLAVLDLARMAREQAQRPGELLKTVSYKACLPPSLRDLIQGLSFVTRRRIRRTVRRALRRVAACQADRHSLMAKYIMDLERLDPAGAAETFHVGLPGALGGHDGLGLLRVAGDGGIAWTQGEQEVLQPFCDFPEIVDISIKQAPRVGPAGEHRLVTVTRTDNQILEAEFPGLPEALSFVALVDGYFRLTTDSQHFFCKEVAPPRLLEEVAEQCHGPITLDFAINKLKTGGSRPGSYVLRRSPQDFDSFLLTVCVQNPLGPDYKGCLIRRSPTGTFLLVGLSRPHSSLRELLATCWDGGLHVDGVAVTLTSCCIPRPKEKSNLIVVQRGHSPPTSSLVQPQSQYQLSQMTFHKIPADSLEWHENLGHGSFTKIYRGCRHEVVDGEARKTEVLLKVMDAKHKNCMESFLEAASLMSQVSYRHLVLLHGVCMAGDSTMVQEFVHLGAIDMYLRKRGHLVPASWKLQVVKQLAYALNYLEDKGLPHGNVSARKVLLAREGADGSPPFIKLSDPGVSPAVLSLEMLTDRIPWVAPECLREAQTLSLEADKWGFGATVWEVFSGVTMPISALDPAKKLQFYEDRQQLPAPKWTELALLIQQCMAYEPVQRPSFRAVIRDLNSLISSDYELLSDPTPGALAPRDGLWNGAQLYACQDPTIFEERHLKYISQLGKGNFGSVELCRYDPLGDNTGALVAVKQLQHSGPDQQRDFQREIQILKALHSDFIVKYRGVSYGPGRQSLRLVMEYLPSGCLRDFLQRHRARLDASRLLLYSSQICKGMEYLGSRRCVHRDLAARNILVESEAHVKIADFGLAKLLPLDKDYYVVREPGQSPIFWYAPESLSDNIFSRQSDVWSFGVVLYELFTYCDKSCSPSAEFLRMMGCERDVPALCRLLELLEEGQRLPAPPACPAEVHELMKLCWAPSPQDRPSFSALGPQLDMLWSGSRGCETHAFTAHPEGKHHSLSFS
Experimental: as §1, §2, §3, §4, §5, §6, §7

[4] = target: T4, TYK2 (Homo sapiens, UniProt P29597); assay: Inhibition of TYK2 kinase, LANCE Ultra TR-FRET assay; conditions: 4 nM TYK2, 2x ATP 30 μM, 15 min pre-incubation, 90 min reaction, 23° C., read-out: tyk IC50
T4 construct: purchased Invitrogen PR8440C
Experimental: as §1, §2, §3, §4, §5, §6, §7

T1 sequence (P23458 whole entry): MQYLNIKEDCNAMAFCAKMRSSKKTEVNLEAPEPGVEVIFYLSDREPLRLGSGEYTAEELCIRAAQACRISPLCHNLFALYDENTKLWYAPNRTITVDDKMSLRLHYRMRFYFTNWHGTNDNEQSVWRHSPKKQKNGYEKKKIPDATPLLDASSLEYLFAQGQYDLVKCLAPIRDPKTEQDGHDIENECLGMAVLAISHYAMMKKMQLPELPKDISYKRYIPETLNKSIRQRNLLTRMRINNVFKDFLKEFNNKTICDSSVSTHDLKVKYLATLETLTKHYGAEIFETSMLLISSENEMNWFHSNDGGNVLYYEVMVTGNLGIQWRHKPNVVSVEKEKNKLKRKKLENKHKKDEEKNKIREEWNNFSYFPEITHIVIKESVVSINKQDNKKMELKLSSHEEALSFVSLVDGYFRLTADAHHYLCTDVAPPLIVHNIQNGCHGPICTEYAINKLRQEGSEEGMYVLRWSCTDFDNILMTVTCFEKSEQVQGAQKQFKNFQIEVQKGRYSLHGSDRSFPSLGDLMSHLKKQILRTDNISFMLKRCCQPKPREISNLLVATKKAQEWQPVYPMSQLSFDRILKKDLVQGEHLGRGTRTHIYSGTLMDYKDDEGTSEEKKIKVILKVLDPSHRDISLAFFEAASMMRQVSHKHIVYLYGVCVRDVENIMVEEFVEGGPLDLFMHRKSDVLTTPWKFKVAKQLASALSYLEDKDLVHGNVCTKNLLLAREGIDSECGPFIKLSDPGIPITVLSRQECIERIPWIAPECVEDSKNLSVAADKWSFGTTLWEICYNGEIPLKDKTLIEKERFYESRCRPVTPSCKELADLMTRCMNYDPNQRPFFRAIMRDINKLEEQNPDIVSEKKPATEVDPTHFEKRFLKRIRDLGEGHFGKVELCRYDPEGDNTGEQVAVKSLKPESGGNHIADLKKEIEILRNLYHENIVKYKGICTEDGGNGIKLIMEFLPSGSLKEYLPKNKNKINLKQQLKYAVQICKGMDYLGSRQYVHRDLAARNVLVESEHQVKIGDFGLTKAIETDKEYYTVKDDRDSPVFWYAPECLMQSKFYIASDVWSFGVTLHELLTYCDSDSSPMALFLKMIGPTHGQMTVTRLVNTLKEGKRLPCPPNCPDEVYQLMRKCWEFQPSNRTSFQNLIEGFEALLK
T2 sequence (O60674 whole entry): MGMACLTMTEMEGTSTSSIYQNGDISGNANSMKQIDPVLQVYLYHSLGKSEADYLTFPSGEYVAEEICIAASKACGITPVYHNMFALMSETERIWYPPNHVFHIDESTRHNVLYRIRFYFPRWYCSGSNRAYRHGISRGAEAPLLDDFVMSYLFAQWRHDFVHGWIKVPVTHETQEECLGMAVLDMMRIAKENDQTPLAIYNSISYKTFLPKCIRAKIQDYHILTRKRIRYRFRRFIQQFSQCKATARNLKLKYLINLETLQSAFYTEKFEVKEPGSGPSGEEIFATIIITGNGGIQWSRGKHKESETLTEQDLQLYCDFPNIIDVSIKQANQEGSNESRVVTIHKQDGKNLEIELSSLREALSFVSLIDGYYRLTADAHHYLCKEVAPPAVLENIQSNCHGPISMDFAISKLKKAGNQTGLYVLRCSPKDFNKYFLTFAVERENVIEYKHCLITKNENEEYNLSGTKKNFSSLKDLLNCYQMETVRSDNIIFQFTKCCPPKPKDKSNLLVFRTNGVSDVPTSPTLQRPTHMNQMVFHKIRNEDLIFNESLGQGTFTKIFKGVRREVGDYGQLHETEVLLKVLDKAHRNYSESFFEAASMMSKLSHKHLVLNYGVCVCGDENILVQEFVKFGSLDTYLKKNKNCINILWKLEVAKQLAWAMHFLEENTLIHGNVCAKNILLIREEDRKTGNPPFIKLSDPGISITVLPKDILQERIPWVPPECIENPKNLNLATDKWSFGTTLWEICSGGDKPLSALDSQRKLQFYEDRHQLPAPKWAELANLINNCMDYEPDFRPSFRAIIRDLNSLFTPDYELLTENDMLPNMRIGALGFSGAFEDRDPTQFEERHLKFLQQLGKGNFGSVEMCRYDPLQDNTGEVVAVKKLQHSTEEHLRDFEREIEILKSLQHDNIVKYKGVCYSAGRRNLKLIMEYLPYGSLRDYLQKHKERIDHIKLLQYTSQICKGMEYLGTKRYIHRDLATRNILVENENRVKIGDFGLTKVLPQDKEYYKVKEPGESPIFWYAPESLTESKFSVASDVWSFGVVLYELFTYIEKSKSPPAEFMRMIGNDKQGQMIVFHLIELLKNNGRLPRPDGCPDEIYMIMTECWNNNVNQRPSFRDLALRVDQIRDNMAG
T4 sequence (P29597 whole entry): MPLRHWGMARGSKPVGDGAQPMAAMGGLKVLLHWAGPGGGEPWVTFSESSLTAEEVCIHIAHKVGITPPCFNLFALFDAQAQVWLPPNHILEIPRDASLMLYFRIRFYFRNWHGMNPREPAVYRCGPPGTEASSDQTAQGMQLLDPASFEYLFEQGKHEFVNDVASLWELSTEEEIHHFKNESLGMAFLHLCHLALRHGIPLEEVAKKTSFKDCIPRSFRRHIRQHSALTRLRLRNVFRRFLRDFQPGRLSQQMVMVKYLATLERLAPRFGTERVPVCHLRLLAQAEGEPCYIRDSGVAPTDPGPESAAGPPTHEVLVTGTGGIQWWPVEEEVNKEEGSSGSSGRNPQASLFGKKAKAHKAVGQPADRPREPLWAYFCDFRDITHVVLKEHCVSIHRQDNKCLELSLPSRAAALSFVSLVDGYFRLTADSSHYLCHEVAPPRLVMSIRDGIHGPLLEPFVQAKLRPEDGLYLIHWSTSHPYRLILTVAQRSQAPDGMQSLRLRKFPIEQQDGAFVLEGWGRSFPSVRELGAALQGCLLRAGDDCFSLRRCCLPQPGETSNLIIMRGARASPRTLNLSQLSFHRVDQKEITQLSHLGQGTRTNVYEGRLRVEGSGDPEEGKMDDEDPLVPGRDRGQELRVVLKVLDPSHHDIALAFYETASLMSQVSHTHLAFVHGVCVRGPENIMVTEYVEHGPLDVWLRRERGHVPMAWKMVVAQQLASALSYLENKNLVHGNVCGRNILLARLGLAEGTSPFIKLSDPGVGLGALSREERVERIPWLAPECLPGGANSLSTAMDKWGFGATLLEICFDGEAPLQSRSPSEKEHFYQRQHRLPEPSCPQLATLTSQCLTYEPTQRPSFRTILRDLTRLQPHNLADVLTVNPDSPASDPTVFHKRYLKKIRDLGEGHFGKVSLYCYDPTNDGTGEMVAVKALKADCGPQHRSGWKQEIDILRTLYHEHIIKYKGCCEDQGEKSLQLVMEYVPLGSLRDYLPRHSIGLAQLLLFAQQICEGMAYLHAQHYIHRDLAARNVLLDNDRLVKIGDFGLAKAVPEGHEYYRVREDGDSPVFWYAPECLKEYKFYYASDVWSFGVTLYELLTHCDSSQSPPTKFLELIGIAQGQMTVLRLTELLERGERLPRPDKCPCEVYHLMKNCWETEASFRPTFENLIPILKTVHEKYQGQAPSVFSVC

IC50 [1] | IC50 [2] | IC50 [3] | IC50 [4] | SMILES
500 to 2000 nM | 500 to 2000 nM | 100 to 500 nM | > 2000 nM | O=C(NC[C@@H]1CC[C@H]1O)c1noc2c1CN(c1ncnc3[nH]ccc13)CC2 (relative stereo) [Compound 150-1]
100 to 500 nM | 100 to 500 nM | < 100 nM | > 2000 nM | O=C(NCC1CCC1O)c1noc2c1CN(c1ncnc3[nH]ccc13)CC2 (centres unmarked) [Compound 150]
> 2000 nM | > 2000 nM | 100 to 500 nM | > 2000 nM | O=C(NCCC(F)(F)F)c1nn(CCCc2ccccn2)c2c1CN(c1ncnc3[nH]ccc13)CC2 [Compound 108]
100 to 500 nM | 500 to 2000 nM | < 100 nM | > 2000 nM | CCn1nc(C(=O)NCCC(F)(F)F)c2c1CCN(c1ncnc3[nH]ccc13)C2 [Compound 112]
> 2000 nM | > 2000 nM | > 2000 nM | > 2000 nM | CNC(=O)[C@H]1C[C@H](NC(=O)c2nn(C)c3c2CN(c2ncnc4[nH]ccc24)CC3)C1 [Compound 122]
500 to 2000 nM | 500 to 2000 nM | 100 to 500 nM | > 2000 nM | CS(=O)(=O)N1CC(CCNC(=O)c2noc3c2CN(c2ncnc4[nH]ccc24)CC3)C1 [Compound 169]
500 to 2000 nM | 500 to 2000 nM | 100 to 500 nM | > 2000 nM | O=C(NCCc1ccccn1)c1noc2c1CN(c1ncnc3[nH]ccc13)CC2 [Compound 153]
100 to 500 nM | 100 to 500 nM | 100 to 500 nM | > 2000 nM | O=C(NCCC1(F)COC1)c1noc2c1CN(c1ncnc3[nH]ccc13)CC2 [Compound 147]
> 2000 nM | > 2000 nM | > 2000 nM | > 2000 nM | CS(=O)(=O)N1CCC(CCNC(=O)c2noc3c2CN(c2ncnc4[nH]ccc24)CC3)C1 (centres unmarked) [Compound 165]
100 to 500 nM | 500 to 2000 nM | 100 to 500 nM | > 2000 nM | Cn1nc(C(=O)N[C@H]2C[C@H](C(=O)NS(C)(=O)=O)C2)c2c1CCN(c1ncnc3[nH]ccc13)C2 [Compound 125]
100 to 500 nM | 500 to 2000 nM | < 100 nM | > 2000 nM | O=C(NCCC(F)(F)F)c1nn(Cc2ccccc2)c2c1CN(c1ncnc3[nH]ccc13)CC2 [Compound 111]
500 to 2000 nM | 500 to 2000 nM | 500 to 2000 nM | > 2000 nM | Cn1nc(C(=O)N[C@H]2C[C@H](CC#N)C2)c2c1CCN(c1ncnc3[nH]ccc13)C2 [Compound 128]
500 to 2000 nM | > 2000 nM | 500 to 2000 nM | > 2000 nM | O=C(NCCN1CCS(=O)(=O)CC1)c1noc2c1CN(c1ncnc3[nH]ccc13)CC2 [Compound 161]
> 2000 nM | > 2000 nM | > 2000 nM | > 2000 nM | Cc1cnc(CCNC(=O)c2noc3c2CN(c2ncnc4[nH]ccc24)CC3)o1 [Compound 139]
< 100 nM | 100 to 500 nM | < 100 nM | 100 to 500 nM | Cn1cc(C(=O)NCCC(F)(F)F)c2c1CCN(c1ncnc3[nH]ccc13)C2 [Compound 130]
< 100 nM | 100 to 500 nM | < 100 nM | 500 to 2000 nM | Cn1nc(C(=O)NCCC(F)(F)F)c2c1CCN(c1ncnc3[nH]ccc13)C2 [Compound 107]
500 to 2000 nM | > 2000 nM | 500 to 2000 nM | > 2000 nM | Cn1nc(C(=O)N[C@H]2C[C@H](C(=O)NCCC(F)(F)F)C2)c2c1CCN(c1ncnc3[nH]ccc13)C2 [Compound 124]
100 to 500 nM | 100 to 500 nM | < 100 nM | > 2000 nM | O=C(NCCCC1(O)CC1)c1noc2c1CN(c1ncnc3[nH]ccc13)CC2 [Compound 144]
> 2000 nM | > 2000 nM | > 2000 nM | > 2000 nM | O=C(NCCN1CCC1)c1noc2c1CN(c1ncnc3[nH]ccc13)CC2 [Compound 152]
500 to 2000 nM | > 2000 nM | 100 to 500 nM | > 2000 nM | O=C(NCCC(F)(F)F)c1nn(C2CCOCC2)c2c1CN(c1ncnc3[nH]ccc13)CC2 [Compound 118]
500 to 2000 nM | 500 to 2000 nM | 100 to 500 nM | > 2000 nM | O=C(NCCS(=O)(=O)N1CCC1)c1noc2c1CN(c1ncnc3[nH]ccc13)CC2 [Compound 134]
100 to 500 nM | 500 to 2000 nM | 100 to 500 nM | > 2000 nM | CS(=O)(=O)N1CCN(CCNC(=O)c2noc3c2CN(c2ncnc4[nH]ccc24)CC3)CC1 [Compound 167]
100 to 500 nM | 100 to 500 nM | < 100 nM | 500 to 2000 nM | O=C(NCCC1CC1)c1n[nH]c2c1CN(c1ncnc3[nH]ccc13)CC2 [Compound 138]
500 to 2000 nM | 500 to 2000 nM | 100 to 500 nM | > 2000 nM | CS(=O)(=O)N1CCC(CNC(=O)c2noc3c2CN(c2ncnc4[nH]ccc24)CC3)C1 (centres unmarked) [Compound 166]
100 to 500 nM | 100 to 500 nM | 100 to 500 nM | > 2000 nM | O=C(NCCS(=O)(=O)N1CCCC1)c1noc2c1CN(c1ncnc3[nH]ccc13)CC2 [Compound 135]
100 to 500 nM | 100 to 500 nM | < 100 nM | > 2000 nM | O=C(NCC1CC1)c1noc2c1CN(c1ncnc3[nH]ccc13)CC2 [Compound 180]
100 to 500 nM | 500 to 2000 nM | 100 to 500 nM | > 2000 nM | CCCS(=O)(=O)NC(=O)[C@H]1C[C@H](NC(=O)c2nn(C)c3c2CN(c2ncnc4[nH]ccc24)CC3)C1 [Compound 127]
100 to 500 nM | > 2000 nM | 100 to 500 nM | > 2000 nM | O=C(NCCC(F)(F)F)c1noc2c1CN(c1ncnc3[nH]ncc13)CC2 [Compound 189]
100 to 500 nM | 500 to 2000 nM | < 100 nM | 500 to 2000 nM | O=C(NCCC(F)(F)F)c1nn(-c2ccccc2)c2c1CN(c1ncnc3[nH]ccc13)CC2 [Compound 114]
